Experimental findings from ChEMBL document CHEMBL4014348, “Design, Multicomponent Synthesis, and Anticancer Activity of a Focused Histone Deacetylase (HDAC) Inhibitor Library with Peptoid-Based Cap Groups” (J Med Chem, 2017) are described below.

Values joined by “and” are separate entries in the source; they are usually repeats but may differ in a detail not shown here. Equal values may be shown once. Active and inactive are the calls of the source. The rule behind the calls is not given here.

Data set [1] deals with Voltage-gated inwardly rectifying potassium channel KCNH2 (Homo sapiens, UniProt Q12809). The data set can be described thus: Inhibition of human ERG.
A short description of data set [2]: Apparent permeability in MDCK cells. The class given is ADME, cell-based, Canis lupus familiaris. Conditions: dog.
A short description of data set [3]: Apparent permeability in human Caco2 cells. The class given is ADME, cell-based, Caco-2. In general terms: Caco-2 cells form a polarised layer with tight junctions and transporters.
A short description of data set [4]: Cytotoxicity against human Cal27CisR cells assessed as cell survival after 72 hrs by MTT assay. The class given is functional, cell-based. Background: Formazan colour is commonly taken as a measure of viable cells.
Data set [5] has as its target T1, Histone deacetylase 1/2/3/6 (Homo sapiens, UniProt Q13547+O15379+Q9UBN7+Q92769). The data set can be described thus: Inhibition of HDAC1/2/3/6 in human A2780cisR cells using Boc-Lys(epsilon-Ac)-AMC as substrate preincubated for 18 hrs followed by substrate addition measured after 3 hrs by fluorescence assay. Type of data set: cell-based.
In another data set the target is Histone deacetylase 2 (Homo sapiens, UniProt Q92769). The data set can be described thus: Inhibition of full length human recombinant C-terminal FLAG-tagged HDAC2 expressed in baculovirus infected Sf9 insect cells using Boc-Lys(epsilon-Ac)-AMC as substrate measured after 90 mins by fluorescence assay. Type of data set: cell-based.
Sequence of Histone deacetylase 2 (Q92769 whole entry): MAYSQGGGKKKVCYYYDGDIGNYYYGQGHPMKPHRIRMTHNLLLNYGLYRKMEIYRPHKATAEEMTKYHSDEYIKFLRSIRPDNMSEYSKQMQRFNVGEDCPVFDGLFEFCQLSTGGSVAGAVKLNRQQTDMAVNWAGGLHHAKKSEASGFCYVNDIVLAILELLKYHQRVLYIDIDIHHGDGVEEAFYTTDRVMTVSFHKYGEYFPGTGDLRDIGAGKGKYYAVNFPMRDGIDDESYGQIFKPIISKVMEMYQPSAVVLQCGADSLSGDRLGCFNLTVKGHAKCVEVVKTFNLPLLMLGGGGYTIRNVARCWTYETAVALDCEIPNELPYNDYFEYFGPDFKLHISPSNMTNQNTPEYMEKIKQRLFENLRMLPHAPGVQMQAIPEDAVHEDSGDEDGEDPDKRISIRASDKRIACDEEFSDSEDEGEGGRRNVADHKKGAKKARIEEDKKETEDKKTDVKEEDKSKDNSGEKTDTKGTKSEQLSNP
The target in data set [6] is T1, Histone deacetylase 1/2/3/6. Briefly: Inhibition of HDAC1/2/3/6 in human Cal27CisR cells using Boc-Lys(epsilon-Ac)-AMC as substrate preincubated for 18 hrs followed by substrate addition measured after 3 hrs by fluorescence assay. The class given is cell-based.
Data set [7] shares this target. The data set can be described thus: Inhibition of HDAC1/2/3/6 in human Cal27 cells using Boc-Lys(epsilon-Ac)-AMC as substrate preincubated for 18 hrs followed by substrate addition measured after 3 hrs by fluorescence assay. The class given is cell-based.
A further data set relates to A2780cisR. The data set can be described thus: Cytotoxicity against human A2780cisR cells assessed as cell survival after 72 hrs by MTT assay. Type of data set: functional, cell-based.
Data set [8] is described as follows: Induction of apoptosis in human Cal27CisR cells at 250 to 500 nM incubated for 48 hrs by flow cytometry assay. The class given is cell-based. Conditions: 0.5 µM.
The target of a further data set is T2, Histone deacetylase 8 (Homo sapiens, UniProt Q9BY41).
T2 sequence (Q9BY41 whole entry): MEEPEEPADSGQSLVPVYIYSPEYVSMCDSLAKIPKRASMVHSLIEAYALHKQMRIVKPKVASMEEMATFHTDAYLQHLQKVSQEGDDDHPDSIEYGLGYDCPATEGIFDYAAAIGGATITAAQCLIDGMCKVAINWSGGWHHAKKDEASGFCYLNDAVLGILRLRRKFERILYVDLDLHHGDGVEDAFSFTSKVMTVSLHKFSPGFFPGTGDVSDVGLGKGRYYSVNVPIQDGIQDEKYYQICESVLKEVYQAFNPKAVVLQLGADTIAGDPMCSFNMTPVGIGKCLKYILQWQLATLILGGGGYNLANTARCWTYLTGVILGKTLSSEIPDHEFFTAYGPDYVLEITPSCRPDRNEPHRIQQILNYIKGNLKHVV
The data set can be described thus: Inhibition of human recombinant HDAC8 expressed in Escherichia coli using Z-L-Lys(epsilon-trifluoroacetyl)-AMC as substrate measured after 90 mins by fluorescence assay.

Data set [9] concerns the target Histone deacetylase 3/Nuclear receptor corepressor 2 (HDAC3/NCoR2) (Homo sapiens, UniProt O15379). The data set can be described thus: Inhibition of full length human recombinant C-terminal His-tagged HDAC3/NcoR2 expressed in baculovirus infected Sf9 insect cells using Boc-Lys(epsilon-Ac)-AMC as substrate measured after 90 mins by fluorescence assay.
In data set [10] the target is T1, Histone deacetylase 1/2/3/6. The data set can be described thus: Inhibition of HDAC1/2/3/6 in human Cal27CisR cells assessed as potentiation of cisplatin-induced apoptosis at 250 to 500 nM preincubated for 48 hrs followed by cisplatin addition by flow cytomertry assay. The class given is cell-based.
Data set [11] shares this target. The data set can be described thus: Inhibition of HDAC1/2/3/6 in human CAL27 cells assessed as potentiation of cisplatin-induced cytotoxicity preincubated for 48 hrs followed by cisplatin addition measured after 72 hrs by MTT assay relative to control. The class given is cell-based.
In data set [12] the target is T3, Protein deacetylase HDAC6 (Homo sapiens) (UniProt Q9UBN7).
T3 sequence (whole entry): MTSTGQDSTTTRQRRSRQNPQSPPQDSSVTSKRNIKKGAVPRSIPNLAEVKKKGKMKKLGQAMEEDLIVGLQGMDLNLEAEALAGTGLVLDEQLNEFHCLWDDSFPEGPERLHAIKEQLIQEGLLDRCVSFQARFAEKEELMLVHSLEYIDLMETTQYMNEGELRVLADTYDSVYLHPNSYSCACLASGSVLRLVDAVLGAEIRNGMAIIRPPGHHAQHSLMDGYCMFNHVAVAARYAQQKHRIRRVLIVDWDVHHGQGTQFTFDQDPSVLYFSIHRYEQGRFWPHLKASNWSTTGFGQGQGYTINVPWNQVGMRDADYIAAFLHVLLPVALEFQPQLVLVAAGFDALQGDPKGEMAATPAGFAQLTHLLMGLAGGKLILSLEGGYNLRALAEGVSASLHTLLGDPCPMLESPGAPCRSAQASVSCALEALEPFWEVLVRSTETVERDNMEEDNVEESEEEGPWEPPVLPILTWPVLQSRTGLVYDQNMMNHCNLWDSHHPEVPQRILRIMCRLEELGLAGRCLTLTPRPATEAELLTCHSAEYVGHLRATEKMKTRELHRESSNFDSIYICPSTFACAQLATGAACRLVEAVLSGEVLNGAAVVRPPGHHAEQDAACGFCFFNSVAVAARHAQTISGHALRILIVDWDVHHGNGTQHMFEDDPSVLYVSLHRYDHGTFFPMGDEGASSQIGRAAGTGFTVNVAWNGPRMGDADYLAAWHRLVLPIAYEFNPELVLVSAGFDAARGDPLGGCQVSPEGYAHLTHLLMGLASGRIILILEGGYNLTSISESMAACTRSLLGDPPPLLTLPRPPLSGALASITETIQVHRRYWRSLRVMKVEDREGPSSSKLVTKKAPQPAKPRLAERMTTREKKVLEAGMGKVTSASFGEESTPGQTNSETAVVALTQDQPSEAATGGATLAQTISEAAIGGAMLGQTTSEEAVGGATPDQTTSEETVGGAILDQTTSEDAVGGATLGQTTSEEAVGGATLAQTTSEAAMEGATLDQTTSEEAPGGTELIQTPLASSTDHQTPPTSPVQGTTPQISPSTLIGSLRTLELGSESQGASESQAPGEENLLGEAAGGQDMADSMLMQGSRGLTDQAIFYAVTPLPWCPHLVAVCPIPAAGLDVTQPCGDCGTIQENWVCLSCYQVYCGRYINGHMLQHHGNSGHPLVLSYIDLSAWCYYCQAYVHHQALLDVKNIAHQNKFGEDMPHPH
The data set can be described thus: Inhibition of HDAC6 in human Cal27CisR cells assessed as increase in acetylation of alpha-tubulin at 10 uM after 24 hrs by Western blot method. Type of data set: cell-based. In general terms: In western blotting, separated proteins are transferred to a membrane and probed.

The target of another data set is Histone deacetylase 1 (Homo sapiens, UniProt Q13547). Briefly: Inhibition of C-terminal FLAG/His-tagged recombinant human HDAC1 expressed in baculovirus infected Sf9 insect cells using Z-(Ac)Lys-AMC as substrate measured after 90 mins by fluorescence assay.
Sequence of Histone deacetylase 1 (Q13547 whole entry): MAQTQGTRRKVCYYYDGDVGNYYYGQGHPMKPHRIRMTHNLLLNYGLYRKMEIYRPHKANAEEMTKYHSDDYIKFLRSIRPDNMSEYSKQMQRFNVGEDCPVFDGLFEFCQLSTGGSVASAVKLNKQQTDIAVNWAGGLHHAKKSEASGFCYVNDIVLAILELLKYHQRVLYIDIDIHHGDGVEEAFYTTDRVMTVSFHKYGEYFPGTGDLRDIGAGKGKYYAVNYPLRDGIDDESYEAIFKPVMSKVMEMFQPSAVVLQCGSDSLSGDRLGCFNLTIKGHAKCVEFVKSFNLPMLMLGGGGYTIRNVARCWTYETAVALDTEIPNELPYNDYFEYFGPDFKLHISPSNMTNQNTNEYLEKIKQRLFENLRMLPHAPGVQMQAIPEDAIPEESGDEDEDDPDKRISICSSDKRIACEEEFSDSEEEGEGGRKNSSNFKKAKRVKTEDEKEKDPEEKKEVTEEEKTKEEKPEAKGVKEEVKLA
For data set [13], the system named is CAL-27. Briefly: Induction of apoptosis in human CAL27 cells at 250 to 500 nM incubated for 48 hrs by flow cytometry assay. The class given is cell-based. Conditions: cal-27, 48 h, 0.5 µM.
The target of data set [14] is T3, Protein deacetylase HDAC6 (Homo sapiens). Briefly: Inhibition of HDAC6 in human Cal27 cells assessed as increase in acetylation of alpha-tubulin at 10 uM after 24 hrs by Western blot method. The class given is cell-based.
Data set [15] has as its target T4, Protein deacetylase HDAC6 (Homo sapiens, UniProt Q9UBN7).
T4 sequence (Q9UBN7 whole entry): T3 sequence (whole entry)
The data set can be described thus: Inhibition of N-terminal GST-tagged recombinant human HDAC6 expressed in baculovirus infected Sf9 insect cells using Z-(Ac)Lys-AMC as substrate measured after 90 mins by fluorescence assay.

Data set [16] has as its target T5, Histone deacetylase 1/2/3 (Homo sapiens) (UniProt Q13547+O15379+Q92769). Briefly: Inhibition of HDAC1/2/3 in human Cal27 cells assessed as increase in acetylation of histone H3 at 10 uM after 24 hrs by Western blot method. The class given is cell-based.
In data set [17] the target is T5, Histone deacetylase 1/2/3 (Homo sapiens). The data set can be described thus: Inhibition of HDAC1/2/3 in human Cal27CisR cells assessed as increase in acetylation of histone H3 at 10 uM after 24 hrs by Western blot method. The class given is cell-based.
In data set [18] the target is T1, Histone deacetylase 1/2/3/6. The data set can be described thus: Inhibition of HDAC1/2/3/6 in human A2780 cells using Boc-Lys(epsilon-Ac)-AMC as substrate preincubated for 18 hrs followed by substrate addition measured after 3 hrs by fluorescence assay. Type of data set: cell-based.
For a further data set, the system named is A2780. The data set can be described thus: Cytotoxicity against human A2780 cells assessed as cell survival after 72 hrs by MTT assay. Type of data set: functional, cell-based. Conditions: A2780, 72 h.
The subject of data set [19] is CAL-27. Briefly: Cytotoxicity against human CAL27 cells assessed as cell survival after 72 hrs by MTT assay. Type of data set: functional, cell-based. Conditions: CAL-27, 72 h.
The target in data set [20] is T1, Histone deacetylase 1/2/3/6. The data set can be described thus: Inhibition of HDAC1/2/3/6 in human Cal27CisR cells assessed as potentiation of cisplatin-induced cytotoxicity preincubated for 48 hrs followed by cisplatin addition measured after 72 hrs by MTT assay relative to control. Type of data set: cell-based.
Data set [21] has the same target. The data set can be described thus: Inhibition of HDAC1/2/3/6 in human Cal27 cells assessed as potentiation of cisplatin-induced apoptosis at 250 to 500 nM preincubated for 48 hrs followed by cisplatin addition by flow cytomertry assay. Type of data set: cell-based.

Sequence of Histone deacetylase 3/Nuclear receptor corepressor 2 (HDAC3/NCoR2) (O15379 whole entry): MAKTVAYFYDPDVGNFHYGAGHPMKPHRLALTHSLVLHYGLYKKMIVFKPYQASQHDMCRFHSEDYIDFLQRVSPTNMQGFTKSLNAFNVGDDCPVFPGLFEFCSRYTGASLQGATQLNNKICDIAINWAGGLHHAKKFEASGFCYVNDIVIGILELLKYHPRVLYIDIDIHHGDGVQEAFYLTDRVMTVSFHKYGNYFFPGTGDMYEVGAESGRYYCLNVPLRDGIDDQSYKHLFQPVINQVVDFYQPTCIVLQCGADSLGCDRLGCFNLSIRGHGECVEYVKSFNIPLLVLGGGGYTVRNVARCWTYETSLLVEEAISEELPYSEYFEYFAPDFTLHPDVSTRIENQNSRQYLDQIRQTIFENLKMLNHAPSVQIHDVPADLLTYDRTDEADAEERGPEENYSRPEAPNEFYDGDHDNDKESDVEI
Sequence of Histone deacetylase 3/Nuclear receptor corepressor 2 (HDAC3/NCoR2) (Q9Y618 whole entry, further chain): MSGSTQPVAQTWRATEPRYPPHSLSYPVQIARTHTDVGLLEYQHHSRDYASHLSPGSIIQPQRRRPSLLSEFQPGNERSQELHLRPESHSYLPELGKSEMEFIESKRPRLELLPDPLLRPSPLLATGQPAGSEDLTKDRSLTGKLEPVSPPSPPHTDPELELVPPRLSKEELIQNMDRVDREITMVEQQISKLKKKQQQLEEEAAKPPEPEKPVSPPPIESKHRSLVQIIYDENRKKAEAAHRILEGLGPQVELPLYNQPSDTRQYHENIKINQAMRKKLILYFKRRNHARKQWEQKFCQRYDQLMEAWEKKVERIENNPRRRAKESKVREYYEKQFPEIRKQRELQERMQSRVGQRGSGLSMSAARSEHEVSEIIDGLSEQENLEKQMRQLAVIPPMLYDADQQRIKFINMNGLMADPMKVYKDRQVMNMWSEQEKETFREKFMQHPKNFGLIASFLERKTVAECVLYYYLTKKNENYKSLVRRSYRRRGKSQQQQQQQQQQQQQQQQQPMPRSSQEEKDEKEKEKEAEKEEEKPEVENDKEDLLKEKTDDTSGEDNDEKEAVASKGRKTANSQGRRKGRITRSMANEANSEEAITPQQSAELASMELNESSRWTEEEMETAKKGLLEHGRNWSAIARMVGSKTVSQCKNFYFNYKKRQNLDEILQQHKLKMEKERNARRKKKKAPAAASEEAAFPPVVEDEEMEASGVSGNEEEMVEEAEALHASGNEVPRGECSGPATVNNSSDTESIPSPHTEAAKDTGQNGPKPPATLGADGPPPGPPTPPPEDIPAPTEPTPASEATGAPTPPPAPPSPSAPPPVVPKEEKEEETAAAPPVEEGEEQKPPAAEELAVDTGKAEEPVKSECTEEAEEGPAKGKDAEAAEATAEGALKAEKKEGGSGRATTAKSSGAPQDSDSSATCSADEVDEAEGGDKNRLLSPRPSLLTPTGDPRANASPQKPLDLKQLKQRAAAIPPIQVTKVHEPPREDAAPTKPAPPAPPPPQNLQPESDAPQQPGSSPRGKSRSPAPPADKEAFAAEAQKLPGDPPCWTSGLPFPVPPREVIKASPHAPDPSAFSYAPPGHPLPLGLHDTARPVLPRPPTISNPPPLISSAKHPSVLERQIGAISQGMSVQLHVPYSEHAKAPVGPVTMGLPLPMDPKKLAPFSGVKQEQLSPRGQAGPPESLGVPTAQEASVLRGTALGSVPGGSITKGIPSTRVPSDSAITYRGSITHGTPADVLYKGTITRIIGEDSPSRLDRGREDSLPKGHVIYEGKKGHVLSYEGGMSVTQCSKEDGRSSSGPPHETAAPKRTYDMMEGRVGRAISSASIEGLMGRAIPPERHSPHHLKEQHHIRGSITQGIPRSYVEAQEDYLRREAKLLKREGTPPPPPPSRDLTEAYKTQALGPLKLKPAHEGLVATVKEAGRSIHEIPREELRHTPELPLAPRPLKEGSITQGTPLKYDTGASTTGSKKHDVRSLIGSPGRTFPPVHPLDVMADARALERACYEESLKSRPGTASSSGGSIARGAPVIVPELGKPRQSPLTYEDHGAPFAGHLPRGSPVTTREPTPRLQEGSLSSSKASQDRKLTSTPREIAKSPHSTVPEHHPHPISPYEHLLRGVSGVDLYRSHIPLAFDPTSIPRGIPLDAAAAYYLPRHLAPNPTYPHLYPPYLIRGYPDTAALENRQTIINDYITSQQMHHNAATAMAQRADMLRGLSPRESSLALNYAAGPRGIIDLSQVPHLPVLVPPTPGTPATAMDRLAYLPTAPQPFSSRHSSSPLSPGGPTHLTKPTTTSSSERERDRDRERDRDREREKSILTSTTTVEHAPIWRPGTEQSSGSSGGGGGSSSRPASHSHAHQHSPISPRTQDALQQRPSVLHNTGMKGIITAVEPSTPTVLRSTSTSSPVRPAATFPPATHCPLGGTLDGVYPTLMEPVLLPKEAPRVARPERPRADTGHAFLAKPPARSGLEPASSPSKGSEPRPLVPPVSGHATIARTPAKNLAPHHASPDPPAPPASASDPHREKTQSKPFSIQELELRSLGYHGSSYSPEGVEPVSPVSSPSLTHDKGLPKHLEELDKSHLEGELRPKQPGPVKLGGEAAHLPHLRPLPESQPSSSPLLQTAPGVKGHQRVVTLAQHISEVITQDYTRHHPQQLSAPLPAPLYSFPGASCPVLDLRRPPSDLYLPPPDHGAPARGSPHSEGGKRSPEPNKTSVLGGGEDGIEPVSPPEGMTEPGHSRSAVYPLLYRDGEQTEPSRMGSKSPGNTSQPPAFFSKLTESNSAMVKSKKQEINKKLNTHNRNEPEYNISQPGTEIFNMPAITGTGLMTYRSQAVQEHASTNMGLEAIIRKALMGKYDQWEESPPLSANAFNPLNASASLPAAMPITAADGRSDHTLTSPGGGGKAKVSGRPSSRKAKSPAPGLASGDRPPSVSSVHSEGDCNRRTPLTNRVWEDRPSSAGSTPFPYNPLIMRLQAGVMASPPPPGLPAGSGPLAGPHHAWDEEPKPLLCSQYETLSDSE
T1 sequence (O15379 whole entry, looked up, one chain of several): as the sequence (O15379 whole entry) above
T1 sequence (Q13547 whole entry, looked up, one chain of several): as the sequence (Q13547 whole entry) above
T1 sequence (Q92769 whole entry, looked up, one chain of several): as the sequence (Q92769 whole entry) above

In turn, `O=C(CCCCCN1C(=O)c2ccccc2N(Cc2ccccc2)C(=O)[C@@H]1Cc1ccccc1)NO` gave an IC50 in data set [1] of 2230 nM. For the same molecule, the Papp was found to be 10.9 ×10⁻⁶ cm/s in [2] (MDCK, read-out: Papp) and 14.4 ×10⁻⁶ cm/s in data set [3] (Caco-2, read-out: Papp).

On to `CN(C)c1ccc(C(=O)N(CCCCCC(=O)NO)CC(=O)NCc2ccccc2)cc1`, for which the IC50 in data set [4] is 1130 nM; in data set [5], 320 nM; at Histone deacetylase 2 it was 66 nM; in [6] it was 350 nM; in data set [7], 270 nM; in the data set with A2780cisR, 1620 nM. Further, the IC50 on Histone deacetylase 8 amounted to 2750 nM; in [9], 6.5 nM; at Histone deacetylase 1, 25 nM; in data set [15], 281 nM; in [18], 480 nM; in the data set with A2780 it was 470 nM. Also, the IC50 in the data set on CAL-27 [19] turned out to be 440 nM. For the same molecule, the Activity result (in data set [8]; with CAL-27 [13]) was “Non-Toxic” in each case. Moreover, the inhibition entry in [10], in data set [12], in data set [14], in data set [16], in data set [17] and in [21] was “Active” in each case. Also, the inhibition result in data set [11] and in data set [20] was “Dose-dependent effect” throughout. For the same molecule, the Papp is 7.3 ×10⁻⁶ cm/s in [2] (MDCK, read-out: Papp); 10.6 ×10⁻⁶ cm/s in data set [2] (mdck); 8.2 ×10⁻⁶ cm/s and 20 ×10⁻⁶ cm/s in data set [3] (caco-2).

For `Cc1ccc(NC(=O)CN(CCCCCC(=O)NO)C(=O)c2ccc(N(C)C)cc2)cc1`, the IC50 in [4] turned out to be 600 nM; in [5], 680 nM; on Histone deacetylase 2 it was 146 nM; in data set [6], 490 nM; in [7], 370 nM; in the data set on A2780cisR, 1610 nM. For the same molecule, the IC50 on Histone deacetylase 8 was found to be 6760 nM; in [9], 16 nM; at Histone deacetylase 1, 96.4 nM; in data set [15], 106 nM; in data set [18] it was 660 nM; in the data set on A2780 it was 400 nM. The IC50 in the data set with CAL-27 [19] worked out at 530 nM.

Regarding `Cc1cc(C)cc(C(=O)N(CCCCCC(=O)NO)CC(=O)NCc2ccccc2)c1`, the IC50 in data set [4] stood at 1410 nM; in data set [5] it was 350 nM; at Histone deacetylase 2, 61 nM; in data set [6] it was 410 nM; in data set [7], 370 nM; in the data set with A2780cisR, 1850 nM. The IC50 was 7330 nM on Histone deacetylase 8; 26 nM in data set [9]; 24.7 nM on Histone deacetylase 1; 135 nM in [15]; 630 nM in data set [18]; 330 nM in the data set with A2780. Further, the IC50 with CAL-27 [19] came to 700 nM.

As for `CN(C)c1ccc(C(=O)N(CC(=O)NC2CCCCC2)Cc2ccc(C(=O)NO)cc2)cc1`, the IC50 in [1] is 21500 nM and 52100 nM. Also, the Papp in data set [2] (MDCK, read-out: Papp) was 6.6 ×10⁻⁶ cm/s; in data set [2] (mdck), 5.8 ×10⁻⁶ cm/s; in data set [3] (Caco-2, read-out: Papp), 9.8 ×10⁻⁶ cm/s; in data set [3] (caco-2), 10.1 ×10⁻⁶ cm/s.

For orientation: IC50 means the concentration that inhibits the measured activity by half. In general, Papp refers to a coefficient for how fast a substance crosses the barrier.
